Assay in all cases: Field trial, in planta tolerance to glyphosate, injury assessed seven days after application
Common to all, as to type: in vivo, Glycine max

For assay [1], the system named is non-transgenic soybean (cv Maverick). The following applies: Maverick non-transgenic control, 7 days after application. As for the experimental part:
(§1) Soybean events containing the 2mEPSPv2 expression cassette construct from pDAB8291 are tolerant to glyphosate. Field trials were performed during the 2009 and 2010 growing seasons. The plots were planted with the transgenic soybean seed which had been produced from the transformation with pDAB8291 and non-transgenic soybean (cv Maverick) which was used as a control. Field grown soybean plants from the T2 and T4 generation were sprayed with high rates of glyphosate. Glyphosate (DURANGO® herbicide Dow AgroSciences, Indianapolis, Ind.) applications were made at the V3 or V5 stage of plant development at a rate of 2,240 g ae/ha. Seven days after glyphosate application, the plants were assessed for injury.

In assay [2] the test system is Soybean event 8291-4524 expressing 2mEPSPS (construct pDAB8291). The following applies: 7 days after application. Here is the method:
as §1

The subject of assay [3] is soybean plants transformed with pDAB8291. The following applies: T2 and T4 field grown plants, 2,240 g ae/ha at V3 or V5, seven days after application. As for the experimental part: as §1
Assay [4] concerns Soybean event 8291-4536 expressing 2mEPSPS (construct pDAB8291). As to conditions: 7 days after application. Here is the method:
as §1

Regarding `O=C(O)CNCP(=O)(O)O` [Glyphosate, N-phosphonomethylglycine], the “Adjusted Mean Injury 7daa(%)” value in assay [1] (T2 trial, application at V3, 2,240 g ae/ha glyphosate) is 100%; in assay [1] (T4 trial, application at V5, 2,240 g ae/ha glyphosate) it was 100%; in assay [2] (event 8291-4524, T2 generation, application at V3, 2,240 g ae/ha glyphosate), 10%; in assay [2] (event 8291-4524, T4 generation, application at V5, 2,240 g ae/ha glyphosate) it was 0.5%; in assay [4] (event 8291-4536, T2 generation, application at V3, 2,240 g ae/ha glyphosate), 3.5%; in assay [4] (event 8291-4536, T4 generation, application at V5, 2,240 g ae/ha glyphosate), 0.75%. The “injury (damage) to plants as compared to Maverick controls” value in assay [3] was “Minimal damage”.

The record behind these values is US9018451B2, “Optimized expression of glyphosate resistance encoding nucleic acid molecules in plant cells” (M S Technologies, LLC, priority 2010, dated 2015).
